Laboratory results taken from US7071205B2 (Ligand Pharmaceuticals Incorporated, priority 2002, dated 2006).
Where two headings read alike, the source gives them in different places.

Assays:
[1] = system: immature rabbits; assay: McPhail (Clauberg) assay of progestational activity; assay type: in vivo, rabbit; details: minimum active dose; estradiol-primed immature rabbits, uterine glandular changes
Experimental: The in vivo activity of selected hPR modulator compounds of the present invention were evaluated utilizing the McPhail assay, according to the following illustrative Examples. The Clauberg or McPhail assay is a classic assay utilizing rabbits to measure progestational activity. […] This is followed by treatment with a progestin, which causes a large change in the glandular content of the uterus. It is this change in the glandular component, which is a measure of the progestational activity of a progestin. The measurement of these glandular changes are carried out histologically using stained sections of the uterus. The in vivo potency of the progestins is presented as the minimum active dose (MAD) in mg/kg.

[2] = target: T1, hPR (Homo sapiens, UniProt P06401); assay: Cotransfection assay, PR antagonist activity in CV-1 cells; assay type: cell-based; details: for IC50: antagonist potency IC50; for PR Antagonist CV-1 Cells Efficacy (%): percent maximal response relative to reference antagonist
T1 sequence (P06401 1-933): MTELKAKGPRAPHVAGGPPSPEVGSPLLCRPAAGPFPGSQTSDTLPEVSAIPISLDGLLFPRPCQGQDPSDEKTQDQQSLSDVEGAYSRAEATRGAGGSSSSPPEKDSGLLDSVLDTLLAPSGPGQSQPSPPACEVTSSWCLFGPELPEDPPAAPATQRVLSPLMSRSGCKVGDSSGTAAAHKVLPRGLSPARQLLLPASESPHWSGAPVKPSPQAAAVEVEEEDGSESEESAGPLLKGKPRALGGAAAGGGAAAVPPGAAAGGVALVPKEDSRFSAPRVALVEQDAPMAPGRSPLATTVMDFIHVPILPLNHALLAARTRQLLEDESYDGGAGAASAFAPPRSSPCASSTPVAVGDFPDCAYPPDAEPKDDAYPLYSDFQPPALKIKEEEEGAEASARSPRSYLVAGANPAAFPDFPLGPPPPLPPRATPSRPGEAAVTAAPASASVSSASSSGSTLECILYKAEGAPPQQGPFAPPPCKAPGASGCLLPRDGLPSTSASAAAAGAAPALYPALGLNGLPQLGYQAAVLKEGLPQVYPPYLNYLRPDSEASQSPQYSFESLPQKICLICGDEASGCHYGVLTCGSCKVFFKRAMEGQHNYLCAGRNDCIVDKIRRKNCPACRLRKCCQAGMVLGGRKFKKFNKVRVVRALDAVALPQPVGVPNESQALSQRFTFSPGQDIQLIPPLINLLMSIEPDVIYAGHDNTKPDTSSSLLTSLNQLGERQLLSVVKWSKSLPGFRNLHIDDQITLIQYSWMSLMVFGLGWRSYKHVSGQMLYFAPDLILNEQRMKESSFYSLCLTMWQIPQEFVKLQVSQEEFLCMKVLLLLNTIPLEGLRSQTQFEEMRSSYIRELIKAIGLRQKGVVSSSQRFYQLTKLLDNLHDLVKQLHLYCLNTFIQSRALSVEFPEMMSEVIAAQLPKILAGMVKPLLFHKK
Experimental: (§1) All the cotransfection experiments were carried out in 96-well plates by automation (Beckman Biomomek automated workstation).

[3] = target: T2, hPR-A (Homo sapiens, UniProt P06401); assay: Receptor competitive binding assay
T2 sequence (P06401 1-769 isoform P06401-2): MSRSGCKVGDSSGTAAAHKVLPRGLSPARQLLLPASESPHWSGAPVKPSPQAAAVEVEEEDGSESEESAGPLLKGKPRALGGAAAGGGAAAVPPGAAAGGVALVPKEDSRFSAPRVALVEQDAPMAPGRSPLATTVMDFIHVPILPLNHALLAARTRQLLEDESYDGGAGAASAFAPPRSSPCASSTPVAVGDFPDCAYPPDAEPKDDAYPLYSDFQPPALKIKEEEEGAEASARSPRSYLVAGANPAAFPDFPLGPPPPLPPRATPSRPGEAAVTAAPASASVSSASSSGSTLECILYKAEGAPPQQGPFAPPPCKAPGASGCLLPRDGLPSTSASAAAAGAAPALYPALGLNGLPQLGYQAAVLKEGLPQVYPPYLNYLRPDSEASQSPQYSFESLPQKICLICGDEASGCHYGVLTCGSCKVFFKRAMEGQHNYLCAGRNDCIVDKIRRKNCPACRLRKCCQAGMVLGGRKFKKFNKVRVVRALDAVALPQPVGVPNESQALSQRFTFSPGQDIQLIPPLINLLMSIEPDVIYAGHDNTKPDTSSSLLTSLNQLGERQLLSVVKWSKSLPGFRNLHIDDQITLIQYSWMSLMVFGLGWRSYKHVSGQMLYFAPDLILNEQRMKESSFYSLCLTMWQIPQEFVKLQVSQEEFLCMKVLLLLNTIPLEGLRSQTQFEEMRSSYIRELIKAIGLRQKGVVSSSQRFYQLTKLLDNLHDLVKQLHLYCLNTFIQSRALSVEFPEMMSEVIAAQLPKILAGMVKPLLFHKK

[4] = target: T1, hPR; assay: Cotransfection assay, PR agonist activity in CV-1 cells; assay type: cell-based; details: for PR Agonist CV-1 Cells Efficacy (%): MTV-LUC reporter, percent maximal response relative to progesterone
Experimental: as §1

[5] = Table 2, repeats PR binding Ki of Table 1, read-out: ki
[6] = CV-1 cells, agonist potency EC50, read-out: PR Agonist CV-1 Cells Potency
[7] = Table 2, repeats PR agonist potency of Table 1, read-out: EC50

SMILES	MAD [1]	IC50 [2]	PR Antagonist CV-1 Cells Efficacy (%) [2]	Ki [3, 5]	Ki ([3]; hPR-A, read-out: PR Binding Ki)	PR Agonist CV-1 Cells Efficacy (%) ([4]; CV-1 cells)	EC50 [4, 6]	EC50 [4, 7]
CC1=CC(C2Oc3ccc(F)cc3-c3ccc4c(c32)C(C)=CC(C)(C)N4)CCC1 (racemic) [Compound 24, (±)-(5l,1′l)-5-(3-methyl-2-cyclohexenyl)-9-fluoro-1,2-dihydro-2,2,4-trimethyl-5H-chromeno[3,4-f]quinoline]	0.25 mg/kg	> 10000 nM	na (na = not active (i.e. efficacy of <20 and potency of >10,000))	6.4 nM	6.4 nM	168%	3.6 nM	3.6 nM
CC1=CC(C)(C)Nc2ccc3c(c21)C(C1CCC(C)=C1C)Oc1c(F)cc(F)cc1-3 (racemic) [Compound 71, (±)-(5l,1′l)-5-(2,3-dimethyl-2-cyclopentenyl)-7,9-difluoro-1,2-dihydro-2,2,4-trimethyl-5H-chromeno[3,4-f]quinoline]	0.25 mg/kg	> 10000 nM	na (na = not active (i.e. efficacy of <20 and potency of >10,000))	3.9 nM	3.9 nM	139%	3.4 nM	3.4 nM
CC1=CC(C2Oc3c(F)cc(F)cc3-c3ccc4c(c32)C(C)=CC(C)(C)N4)CCC1 (single isomer, unassigned; (-)) [Compound 38, (−)-(5l,1′l)-5-(3-methyl-2-cyclohexenyl)-7,9-difluoro-1,2-dihydro-2,2,4-trimethyl-5H-chromeno[3,4-f]quinoline]	0.10 mg/kg	–	na (na = not active (i.e. efficacy of <20 and potency of >10,000))	–	–	166%	–	–
